In brackets after ≈: the same amount, converted by molar mass. Where two headings read alike, the source gives them in different places.

In experiment [1] the test system is Fusarium graminearum. The class given is in vivo. The conditions noted are these: corn from treated seeds, 0.025 mg/seed, F. graminearum inoculated.
Experiment [2] relates to Diplodia maydis (Dm). Nature of the experiment: In vitro pathogen growth inhibition assay, Dm. It counts as cell-based. The conditions noted are these: Stenocarpella maydis, 48 h, ≥90% growth inhibition; 48 hours; vs 2% DMSO control; read-out: Compound Concentration (ppm) sufficient for ≥90% inhibition of Dm. The gist of the method: (§1)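 Value reported is the compound concentration reaching ≥90% growth inhibition, from OD readings at 24 and 48 h after blank subtraction, confirmed visually. Inoculum was spores diluted in 17% V8 medium, except Rs, using 1.5 mm mycelial plugs in ¼ PDB; actual compound concentration corrected via OD600.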

In experiment [3] the test system is Blumeria graminis f. sp. hordei. Nature of the experiment: Foliar protection test for barley powdery mildew control. The conditions noted are these: foliar spray on Hordeum vulgare cv. Perry, inoculated 24 hours after treatment, evaluated 7 days later. The class given is in vivo. The gist of the method: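 Protective foliar test: compound atomized onto both leaf surfaces of 6-day-old Hordeum vulgare cv. Perry, followed after 24 h by spore-cloud inoculation from colonized untreated plants. Disease rated on leaves 7 days on, plants held at 20 to 22° C and 70% RH.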

For experiment [4], the system named is Mycosphaerella graminicola (synthetic Septoria tritici). Put plainly: Foliar protection test for wheat septoria leaf blotch control. The class given is in vivo. The conditions noted are these: foliar spray on Triticum aestivum cv. WinterHawk, inoculated 1 hour after treatment, evaluated 16 days later.
The subject of experiment [5] is Fusarium virguliforme (Fv). Nature of the experiment: In vitro pathogen growth inhibition assay, Fv. It counts as cell-based. The conditions noted are these: ≥90% growth inhibition, 48 hours, vs 2% DMSO control, read-out: Compound Concentration (ppm) sufficient for ≥90% inhibition of Fv. Put shortly:
as §1

Experiment [6] relates to Fusarium graminearum. The class given is in vivo. The conditions noted are these: spray on flowering Triticum aestivum cv. Samson, inoculated 24 hours after treatment, evaluated 14 days later.
Experiment [7] concerns Septoria tritici (St). Put plainly: In vitro pathogen growth inhibition assay, St. It counts as cell-based. The conditions noted are these: Zymoseptoria tritici, 48 h, ≥90% growth inhibition; 48 hours; vs 2% DMSO control; read-out: Compound Concentration (ppm) sufficient for ≥90% inhibition of St. The gist of the method:
as §1

Experiment [8] deals with Collectotrichum graminicola (Cg). Nature of the experiment: In vitro pathogen growth inhibition assay, Cg. It counts as cell-based. The conditions noted are these: 48 h, ≥90% growth inhibition; 48 hours; vs 2% DMSO control; read-out: Compound Concentration (ppm) sufficient for ≥90% inhibition of Cg. The gist of the method: as §1
Experiment [9] deals with Phytophthora capsici (Pc). Put plainly: In vitro pathogen growth inhibition assay, Pc. It counts as cell-based. The conditions noted are these: 48 h, ≥90% growth inhibition, 48 hours, vs 2% DMSO control, read-out: Compound Concentration (ppm) sufficient for ≥90% inhibition of Pc. Put shortly: as §1
The test system of experiment [10] is Rhizoctonia solani (Rs). Nature of the experiment: In vitro pathogen growth inhibition assay, Rs (mycelial plugs). The conditions noted are these: Rhizoctonia solani, 48 h, ≥90% growth inhibition; mycelial plugs; 48 hours; vs 2% DMSO control; read-out: Compound Concentration (ppm) sufficient for ≥90% inhibition of Rs. It counts as cell-based. The gist of the method: as §1

Experiment [11] concerns Sphaerotheca fuliginea. Put plainly: Foliar protection for cucumber powdery mildew control. The class given is in vivo. The conditions noted are these: foliar spray on Cucumis sativus cv. Straight Eight, inoculated 24 hours after treatment, evaluated 7 days later. Put shortly:
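Protective foliar spray on 10-day-old Straight Eight cucumbers, with S. fuliginea spores dusted from infected stock plants 24 h after treatment. Disease developed at 23–27 °C, 60% RH and a 16 h photoperiod. Leaves were rated for mildew growth after 7 days; test rates 10 ppm or below.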

Experiment [12] concerns Puccinia triticina. Nature of the experiment: Foliar protection test for wheat leaf rust control. The class given is in vivo. The conditions noted are these: foliar application to wheat (Triticum aestivum cv. Winterhawk), evaluated 10 days later.
The test system of experiment [13] is Botrtyis cinerea (Bc). Nature of the experiment: In vitro pathogen growth inhibition assay, Bc. The class given is cell-based. The conditions noted are these: 48 h, ≥90% growth inhibition; 48 hours; vs 2% DMSO control; read-out: Compound Concentration (ppm) sufficient for ≥90% inhibition of Bc. Put shortly: as §1
Experiment [14] concerns Phakopsora pachyrhizi. Put plainly: Foliar protection test for Asian soybean rust control. It counts as in vivo. The conditions noted are these: foliar application to soybean (Glycine max AG4832), percent disease area evaluated 14 days later.
Experiment [15] has as its system Fusarium moniliforme (Fm). Put plainly: In vitro pathogen growth inhibition assay, Fm. It counts as cell-based. The conditions noted are these: Fusarium verticillioides; ≥90% growth inhibition; 48 hours; vs 2% DMSO control; read-out: Compound Concentration (ppm) sufficient for ≥90% inhibition of Fm. The gist of the method: as §1

For `COc1ccc(F)cc1[C@@H](O)Cn1c(=O)n(C(C)(C)C(=O)NC(C)C)c(=O)c2c(C)c(-n3nccn3)sc21` [Compound I-185, (R)-2-(1-(2-(5-fluoro-2-methoxyphenyl)-2-hydroxyethyl)-5-methyl-2,4-dioxo-6-(2H-1,2,3-triazol-2-yl)-1,4-dihydrothieno[2,3-d]pyrimidin-3 (2H)-yl)-N-isopropyl-2-methylpropanamide], the “Plant Height” value in experiment [1] (Table 12) is on record as 45.66 cm. Besides, the IC90 in [2] is 0.4 µg/mL (≈ 0.734 µM); in experiment [5], 0.08 µg/mL (≈ 0.147 µM); in [7] it was at least 50 µg/mL; in [8], 0.4 µg/mL (≈ 0.734 µM); in experiment [9] it was at least 10 µg/mL; in experiment [10], 0.08 µg/mL (≈ 0.147 µM). Moreover, the IC90 in [13] turned out to be 0.4 µg/mL (≈ 0.734 µM); in [15], 0.08 µg/mL (≈ 0.147 µM). Also, in experiment [3], the “Barley Powdery Mildew Control at a compound concentration of 10 ppm or lower” value is “AA (≥85% control of barley powdery mildew)”. The “Septoria Leaf Blotch Control at a compound concentration of 25 ppm or lower” value in experiment [4] was “AA (≥85% control of wheat septoria leaf blotch)”. The “Wheat Fusarium Head Blight Control at a compound concentration of 25 ppm or lower” value in experiment [6] is reported as “A (from 70% to 84% control of wheat fusarium head blight)”. In experiment [11], the “Cucumber Powdery Mildew Control at a compound concentration of 10 ppm or lower” value is listed as “AA (≥85% control of cucumber powdery mildew)”. Besides, the “Wheat Leaf Rust Control at a compound concentration of 10 ppm or lower” value in experiment [12] is listed as “AA (≥85% control of wheat leaf rust)”. The “Asian Soybean Rust Control at a compound concentration of 25 ppm or lower” value in experiment [14] is listed as “AA (≥85% control of Asian soybean rust)”.

For `COc1ccc(F)cc1[C@H](Cn1c(=O)n([C@H](C)C(=O)N(C)C(C)C)c(=O)c2c(C)c(-n3nccn3)sc21)OCCC#N` [Compound I-205, (R)-2-(1-((R)-2-(2-cyanoethoxy)-2-(5-fluoro-2-methoxyphenyl)ethyl)-5-methyl-2,4-dioxo-6-(2H-1,2,3-triazol-2-yl)-1,4-dihydrothieno[2,3-d]pyrimidin-3 (2H)-yl)-N-isopropyl-N-methylpropanamide], the “Plant Height” value in experiment [1] (Table 13) was determined as 41.47 cm. The IC90 is at least 0.08 µg/mL in experiment [2]; 0.4 µg/mL (≈ 0.669 µM) in [5]; over 50 µg/mL in [7]; 0.4 µg/mL (≈ 0.669 µM) in experiment [8]; over 50 µg/mL in experiment [9]; 0.08 µg/mL (≈ 0.134 µM) in [10]. Besides, the IC90 in experiment [13] and in experiment [15] was 0.4 µg/mL (≈ 0.669 µM) in each case. Besides, in [3], the “Barley Powdery Mildew Control at a compound concentration of 10 ppm or lower” value is listed as “AA (≥85% control of barley powdery mildew)”. For the same compound, in experiment [4], the “Septoria Leaf Blotch Control at a compound concentration of 25 ppm or lower” value is given as “AA (≥85% control of wheat septoria leaf blotch)”. Moreover, the “Wheat Fusarium Head Blight Control at a compound concentration of 25 ppm or lower” value in [6] was “C (from 25 to 49% control of wheat fusarium head blight)”. In addition, in experiment [11], the “Cucumber Powdery Mildew Control at a compound concentration of 10 ppm or lower” value was “AA (≥85% control of cucumber powdery mildew)”. Besides, the “Wheat Leaf Rust Control at a compound concentration of 10 ppm or lower” value in [12] is on record as “AA (≥85% control of wheat leaf rust)”. The “Asian Soybean Rust Control at a compound concentration of 25 ppm or lower” value in experiment [14] was “AA (≥85% control of Asian soybean rust)”.

(Values after patent publication US10941157B2, “Pesticidal compositions and uses thereof” (Gilead Apollo, LLC, priority 2015, dated 2021).)
